This is an account of results in publication PMC10830420, “Structures, functions and adaptations of the human LINE-1 ORF2 protein” (Nature, 2023).

The subject of this test is interferon production in THP1 cells. The experiment in a line: Interferon reporter assay in THP1 cells (secreted luciferase). Type of test: cell-based, human. Particulars: 50 µM; THP1 cells, 1 µM decitabine. The method, then: Culture Collection ( AT CC); THP1-Dual and THP1- Dual KO-TREX1 cells were from InvivoGen. All cell lines were maintained at 37 °C and 5% CO2 and validated and tested for mycoplasma. All plasmids and affinity reagents are described in Supplementary Tables 4-5 , respectively and available from Addgene at https://www.addgene.org/browse/article/28243724/. […]
Interferon reporter assay in THP1 cells
The type I interferon response was evaluated using THP1 -Dual and THP1-Dual KO-TREX1 cells (InvivoGen), which secrete a Lucia luciferase reporter gene under control of an interferon- responsive promoter. THP1-Dual KO-TREX1 cell were generated by stable biallelic knock-out of the TREX1 gene. Cell were treated with a dose titration of test compound in the presence of 1 µM 5- aza-2ʹ-deoxycytidine (decitabine, Sigma, #189825), which de- represses LINE-1121. Type 1 Interferon and cell viability were assessed after five days of treatment. QUANTI-LUC solution containing stabilizer was added to the cell supernatant and luminescence was measured on a p la t e reader, and cells were assessed for cell viability using CellTiter-Glo (Promega, #G9683) according to the manufacturer’s instructions.
LINE-1 dual luciferase retrotransposition assay
To assess the potency of inhibiting LINE-1 retrotransposon, a stable clonal dual luciferase L1 reporter cell line was generated and reported as described130,133 in the HeLa Tet-On 3G cell line (Takara, ). SB100x161 was used to integrate pRT006.2, a vector similar to pYX056 130 , which contains a bi-directional Tet-On promoter expressing both control Renilla luciferase and LINE-1 ORFeus-Hs Firefly luciferase antisense intron (AI) r epor t er 79,162. A single cell clone was selected with the highest doxycycline-induced luciferase signal vs baseline. Cells were mixed with compounds and induced for reporter expression with 500 ng/mL doxycycline (Sigma, #D9891) for 72 hours. Luminescence was measured using the Dual-Glo Luciferase Assay System (Promega, #E2940) following the manufacturer’s instructions, and the ratio of Firefly to Renilla Luciferase activity was used to measure […]
Telomerase activity assay
The human telomerase assay was performed with telomerase in MCF- 7 cell lysates using the Telo TAGGG Telomerase PCR ELISAplus kit (Roche). Test compounds (NTPs) were serially diluted in water, mixed with 0.2 µg of M CF- 7 lysate, and pre- incubated at room temperature for 15 minutes. Then the reaction was carried out for 30 minutes, amplified using PCR, and visualized colorimetrically per t he manufacturer’s instructions.
Cells were lysed in ice cold RIPA buffer containing 1x protease inhibitor tablet (Thermo), centrifuged for 10 minutes, and clarified lysates were quantified by BCA assay. […]
(In general: In a reporter assay the amount or activity of a reporter protein is the signal.)

On to `Cc1cn([C@H]2C=C[C@@H](CO)O2)c(=O)[nH]c1=O` [d4T, stavudine], for which the “baseline and decitabine-induced IFN production” value was “reduced”.
